Five compounds from ChEMBL document CHEMBL1139223, “Isofagomine- and 2,5-anhydro-2,5-imino-D-glucitol-based glucocerebrosidase pharmacological chaperones for Gaucher disease intervention” (J Med Chem, 2007) can be followed below.

Assay [1] addresses T1, Lysosomal acid glucosylceramidase (Homo sapiens) (UniProt P04062).
T1 sequence (whole entry): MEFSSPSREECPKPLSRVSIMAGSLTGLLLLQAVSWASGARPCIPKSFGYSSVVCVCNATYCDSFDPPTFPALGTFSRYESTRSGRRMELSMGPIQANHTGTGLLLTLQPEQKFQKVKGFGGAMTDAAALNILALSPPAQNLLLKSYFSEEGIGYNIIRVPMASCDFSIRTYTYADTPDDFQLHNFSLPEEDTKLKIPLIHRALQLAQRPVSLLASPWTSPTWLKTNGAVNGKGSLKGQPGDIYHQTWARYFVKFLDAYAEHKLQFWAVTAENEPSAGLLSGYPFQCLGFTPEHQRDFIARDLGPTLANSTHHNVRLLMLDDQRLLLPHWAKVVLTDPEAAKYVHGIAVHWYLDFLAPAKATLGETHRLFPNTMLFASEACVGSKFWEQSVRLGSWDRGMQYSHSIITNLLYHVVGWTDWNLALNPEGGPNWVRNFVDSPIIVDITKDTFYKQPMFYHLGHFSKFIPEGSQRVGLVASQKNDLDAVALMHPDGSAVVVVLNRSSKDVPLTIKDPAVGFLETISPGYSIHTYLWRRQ
The assay is described as follows: Increase in non-lysosomal activity of glucocerebrosidase N370S mutant in human L444P cells at 75 uM relative to Conduritol B epoxide. It is filed as cell-based.

Assay [2] deals with L444P. In words: Increase in non-lysosomal activity of glucocerebrosidase […] mutant in human L444P cells at 150 uM relative to Conduritol B epoxide. It is filed as cell-based.
For assay [3], the target named is T2, Lysosomal acid glucosylceramidase (Homo sapiens, UniProt P04062).
T2 sequence (P04062 whole entry): T1 sequence (whole entry)
In words: Inhibition of glucocerebrosidase.

Assay [4] addresses T1, Lysosomal acid glucosylceramidase (Homo sapiens). The assay is described as follows: Increase in non-lysosomal activity of glucocerebrosidase N370S mutant in human L444P cells at 50 uM relative to Conduritol B epoxide. The assay is classed as cell-based.
Assay [5] has the same target. The assay is described as follows: Increase in non-lysosomal activity of glucocerebrosidase N370S mutant in human L444P cells at 30 uM relative to Conduritol B epoxide. It is filed as cell-based.
The test system of assay [6] is L444P. In words: Increase in non-lysosomal activity of glucocerebrosidase […] mutant in human L444P cells at 20 uM relative to Conduritol B epoxide. It is filed as cell-based.
In assay [7] the target is T1, Lysosomal acid glucosylceramidase (Homo sapiens). The assay is described as follows: Increase in non-lysosomal activity of glucocerebrosidase N370S mutant in human L444P cells at 20 uM relative to Conduritol B epoxide. The assay is classed as cell-based.
The test system of assay [8] is L444P. The assay is described as follows: Increase in non-lysosomal activity of glucocerebrosidase […] mutant in human L444P cells at 50 uM relative to Conduritol B epoxide. It is filed as cell-based.

Regarding `O=C(CCCN1C[C@H](CO)[C@@H](O)[C@H](O)C1)NC12CC3CC(CC(C3)C1)C2`, the values for the Activity in assay [1] and in assay [2] were 2.5 and 7, respectively. In assay [3], this compound displayed an IC50 of 18 µM.
On to `O=C(CCCCN1C[C@H](CO)[C@@H](O)[C@H](O)C1)NC12CC3CC(CC(C3)C1)C2`, for which the Activity is 1.9 in assay [4] and 7.2 in assay [2]. This compound also registered an IC50 in assay [3] of 11 µM.
For the compound `O=C(CCCN1[C@H](CO)[C@@H](O)[C@H](O)[C@@H]1CO)NC12CC3CC(CC(C3)C1)C2`, the values for the Activity in assay [5] and in assay [6] were 2.2 and 1.6, respectively. This compound yielded a 50% inhibitory concentration (IC50) in assay [3] of 507 µM.
`O=C(CCCCCN1C[C@H](CO)[C@@H](O)[C@H](O)C1)NC12CC3CC(CC(C3)C1)C2`: the Activity in assay [1] amounted to 2.3; in assay [2] it was 5.1. The same compound returned an IC50 in assay [3] of 94 µM.
For `O=C(CCCCN1[C@H](CO)[C@@H](O)[C@H](O)[C@@H]1CO)NC12CC3CC(CC(C3)C1)C2`, the figures for the Activity in assay [7] and in assay [8] were 1.4 and 2.2, respectively. The same compound gave a half-inhibitory concentration (IC50) in assay [3] of 393 µM.
